Experimental data: US5602153A, “Method of using 1-arylheteroarylalkyl substituted-1H-1,2,4-triazole compounds for treatment of a giaucoma disorder” (G.D. Searle & Co., priority 1993, dated 1997)
Read-outs that look alike come from different tables or passages of the source.

Target: T1, rabbit aortic rings (Oryctolagus cuniculus, UniProt P34976)
T1 construct: The thoracic aorta was removed, cleaned of adherent fat and connective tissue; from tissue; host or cells: thoracic aorta rings, endothelium removed, male New Zealand white rabbit
T1 sequence (P34976 1-359): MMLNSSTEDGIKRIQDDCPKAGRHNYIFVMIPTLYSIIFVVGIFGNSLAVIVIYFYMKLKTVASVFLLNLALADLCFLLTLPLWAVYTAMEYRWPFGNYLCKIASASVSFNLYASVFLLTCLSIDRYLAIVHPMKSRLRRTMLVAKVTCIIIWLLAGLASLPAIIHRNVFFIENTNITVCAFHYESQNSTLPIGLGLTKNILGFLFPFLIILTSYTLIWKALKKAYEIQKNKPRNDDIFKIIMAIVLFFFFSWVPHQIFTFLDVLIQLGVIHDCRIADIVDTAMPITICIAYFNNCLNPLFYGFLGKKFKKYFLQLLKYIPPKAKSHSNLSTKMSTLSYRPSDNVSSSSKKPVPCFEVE
Assay: Assay B: In Vitro Vascular Smooth Muscle-Response for AII (antagonist activity in rabbit aortic rings)
Type: cell-based, rabbit (male New Zealand white)
Conditions: antagonist 10^-5 M for 5 min, AII challenge
Description: Assay B: In Vitro Vascular Smooth Muscle-Response for AII The compounds of the invention were tested for antagonist activity in rabbit aortic rings. Male New Zealand white rabbits (2-2.5 kg) were sacrificed using an overdose of pentobarbital and exsanguinated via the carotid arteries. The thoracic aorta was removed, cleaned of adherent fat and connective tissue and then cut into 3-mm ring segments. The endothelium was removed from the rings by gently sliding a rolled-up piece of filter paper into the vessel lumen. The rings were then mounted in a water-jacketed tissue bath, maintained at 37° C., between moveable and fixed ends of a stainless steel wire with the moveable end attached to an FT03 Grass transducer coupled to a Model 7D Grass Polygraph for recording isometric force responses. The bath was filled with 20 ml of oxygenated (95% oxygen/5% carbon dioxide) Krebs solution of the following composition (mM): 130 NaCl, 15 NaHCO3, 15 KCl, 1.2 NaH2 PO4, 1.2 MgSO4, 2.5 CaCl2, and 11.4 glucose. The preparations were equilibrated for one hour before approximately one gram of passive tension was placed on the rings. Angiotensin II concentration-response curves were then recorded (3×10^-10 to 1×10^-5 M). Each concentration of AII was allowed to elicit its maximal contraction, and then AII was washed out repeatedly for 30 minutes before rechallenging with a higher concentration of AII. Aorta rings were exposed to the test antagonist at 10^-5 M for 5 minutes before challenging with AII. Adjacent segments of the same aorta ring were used for all concentration-response curves in the presence or absence of the test antagonist. The effectiveness of the test compound was expressed in terms of pA2 values and were calculated according to H.O. Schild [Br. J. Pharmacol. Chemother., 2, 189-206 (1947)]. The pA2 value is the concentration of the antagonist which increases the EC50 value for AII by a factor of two. Each test antagonist was evaluated in aorta rings from two rabbits.

[1] = first of two rabbits, read-out: pA2 (first value) (converted)
[2] = second of two rabbits, read-out: pA2 (converted)

Kb [1]	Kb [2]	SMILES
13.2 nM	9.77 nM	CCCCc1nc(CCCC)n(Cc2ccc(-c3ccccc3-c3nnn[nH]3)cn2)n1 [Example 1, 5-[2-[6-[(3,5-dibutyl-1H-1,2,4-triazol-1-yl)methyl]-3-pyridinyl]phenyl]-1H-tetrazole]
2.69 nM	5.75 nM	CCCCc1nc(CCCC)n(Cc2ccc(-c3ccccc3-c3nnn[nH]3)nc2)n1 [Example 3, 5-[2-[5-[(3,5-dibutyl-1H-1,2,4-triazol-1-yl)methyl]-2-pyridinyl]phenyl]-1H-tetrazole]
